SMILES strings stand for the structures.

human LPAR1, sequence (Q92633 whole entry): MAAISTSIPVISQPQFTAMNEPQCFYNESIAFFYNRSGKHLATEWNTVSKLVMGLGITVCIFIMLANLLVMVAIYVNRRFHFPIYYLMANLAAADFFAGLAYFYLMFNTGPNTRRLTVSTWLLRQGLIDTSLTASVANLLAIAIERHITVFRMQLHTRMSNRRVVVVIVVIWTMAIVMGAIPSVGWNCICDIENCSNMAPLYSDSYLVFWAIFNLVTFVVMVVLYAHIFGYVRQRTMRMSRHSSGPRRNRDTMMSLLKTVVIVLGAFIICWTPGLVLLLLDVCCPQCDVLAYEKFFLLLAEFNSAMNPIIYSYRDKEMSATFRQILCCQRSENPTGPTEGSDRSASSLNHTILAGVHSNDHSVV

This assay concerns the target human LPAR1 (Homo sapiens (Human), UniProt Q92633). Put plainly: LPAR1 intracellular calcium mobilization assay (antagonist mode, FLIPR). In kind it is cell-based. The conditions noted are these: CHO-K1 EDG2 cells expressing human LPAR1, LPA 18:2 at EC80 (100 nM), test compound 0.5 nM to 10 μM. In general terms: Calcium flux is commonly read through the fluorescence of an indicator in the cells.
Consider `C[C@@H](OC(=O)Nc1c(-c2ccc(NC(=O)[C@H]3C[C@@H]3C3CC3)cn2)nnn1C)c1cc(F)cnc1F` [Compound 268, (R)-1-(2,5-difluoropyridin-3-yl)ethyl (4-(5-((1R,2S)-[1,1′-bi(cyclopropane)]-2-carboxamido)pyridin-2-yl)-1-methyl-1H-1,2,3-triazol-5-yl)carbamate], for which the EC50 (in general, the concentration that produces a half-maximal response) came to 7.3 nM.
For `C[C@@H](OC(=O)Nc1c(-c2ccc(NC(=O)[C@@H]3C[C@H]3F)cn2)nnn1C)c1cccnc1F` [Compound 169, (R)-1-(2-fluoropyridin-3-yl)ethyl (4-(5-((1S,2R)-2-fluorocyclopropane-1-carboxamido)pyridin-2-yl)-1-methyl-1H-1,2,3-triazol-5-yl)carbamate], the EC50 was 191 nM.
To `C[C@@H](OC(=O)Nc1c(-c2ccc(NC(=O)[C@]3(C#N)C[C@H]3F)cn2)nnn1C)c1cc(F)cnc1F` [Compound 269, (R)-1-(2,5-difluoropyridin-3-yl)ethyl (4-(5-((1R,2R)-1-cyano-2-fluorocyclopropane-1-carboxamido)pyridin-2-yl)-1-methyl-1H-1,2,3-triazol-5-yl)carbamate] belongs 127 nM; to `C[C@@H](OC(=O)Nc1c(-c2ccc(NC(=O)[C@H]3CCC(=O)N3)cn2)nnn1C)c1cccnc1Cl` [Compound 152, (R)-1-(2-chloropyridin-3-yl)ethyl (1-methyl-4-(5-((R)-5-oxopyrrolidine-2-carboxamido)pyridin-2-yl)-1H-1,2,3-triazol-5-yl)carbamate], 3990 nM.
As for `CC(OC(=O)Nc1c(-c2ccc(NC(=O)C3(C#N)CC3)cn2)nnn1C)c1ccc(F)nc1Cl` (centres unmarked) [Compound 181, 1-(2-chloro-6-fluoropyridin-3-yl)ethyl (4-(5-(1-cyanocyclopropane-1-carboxamido)pyridin-2-yl)-1-methyl-1H-1,2,3-triazol-5-yl)carbamate], the half-maximal effective concentration (EC50) turned out to be 428 nM.
To `C[C@@H](OC(=O)Nc1c(-c2ncc(NC(=O)C3(C#N)CC3)cn2)nnn1C)c1cccnc1Cl` [Compound 2, [(1R)-1-(2-chloro-3-pyridyl)ethyl] N-[5-[5-[(1-cyanocyclopropanecarbonyl)amino]pyrimidin-2-yl]-3-methyl-triazol-4-yl]carbamate] belongs 953 nM.
To `C[C@@H](OC(=O)Nc1c(-c2ccc(NC(=O)c3ccccc3)cn2)nnn1C)c1cccnc1Cl` [Compound 29, (R)-1-(2-chloropyridin-3-yl)ethyl (4-(5-benzamidopyridin-2-yl)-1-methyl-1H-1,2,3-triazol-5-yl)carbamate] belongs 261 nM; to `C[C@@H](OC(=O)Nc1c(-c2ccc(NC(=O)C3CC(C)(O)C3)cn2)nnn1C)c1cccnc1Cl` (stereo partly drawn) [Compound 109, (R)-1-(2-chloropyridin-3-yl)ethyl (4-(5-(3-hydroxy-3-methylcyclobutane-1-carboxamido)pyridin-2-yl)-1-methyl-1H-1,2,3-triazol-5-yl)carbamate], 1710 nM.
Under `CO[C@H]1C[C@H](C(=O)Nc2ccc(-c3nnn(C)c3NC(=O)O[C@H](C)c3cccnc3Cl)nc2)C1` [Compound 156, (R)-1-(2-chloropyridin-3-yl)ethyl (4-(5-((1r,3R)-3-methoxycyclobutane-1-carboxamido)pyridin-2-yl)-1-methyl-1H-1,2,3-triazol-5-yl)carbamate] stands 50.7 nM.
Turning to `CCC(=O)Nc1ccc(-c2nnn(C)c2NC(=O)O[C@H](C)c2cccnc2Cl)nc1` [Compound 33, (R)-1-(2-chloropyridin-3-yl)ethyl (1-methyl-4-(5-propionamidopyridin-2-yl)-1H-1,2,3-triazol-5-yl)carbamate], the EC50 is 1020 nM.
To `C[C@@H](OC(=O)Nc1c(-c2ccc(NC(=O)C34CCC(O)(CC3)CC4)cn2)nnn1C)c1cccnc1Cl` [Compound 115, (R)-1-(2-chloropyridin-3-yl)ethyl (4-(5-(4-hydroxybicyclo[2.2.2]octane-1-carboxamido)pyridin-2-yl)-1-methyl-1H-1,2,3-triazol-5-yl)carbamate] belongs 654 nM.

Values taken from patent US11912686B2 (Gilead Sciences, Inc., priority 2020, dated 2024).
